According to patent US20250041272A1, “COMPOSITIONS AND METHODS FOR TREATING CANCER VIA PTP1B INHIBITION” (priority 2021, published 2025):

How the values were obtained:
[1] = tested on: Stat1 phosphorylation and MyD88 in macrophages; assay: Transwell co-culture of M1 induced macrophages with tumor cells plus inhibitors (Western blot, qRT-PCR); assay type: cell-based, mouse; details: 24 hours
Procedure: (§1) Peritoneal macrophage isolation and culture. Peritoneal macrophages were done as described previously(65) from 8-week-old C57BL/6J mice (randomized, both male and female). PBS (Gibco) was injected in the mural peritoneal cavity to release the macrophages. After recovering, cells were centrifuged at 1200 rpm for 5 minutes, resuspended in DMEM high glucose, 10% FBS, 1% penicillin-streptomycin (Gibco) and plated. 2 hours after the last step, cells were washed with PBS and maintained in DMEM/F12 supplemented with 10% FBS, 1% penicillin-streptomycin and 20 ng/ml of M-CSF (Prospec) for 2 days. Macrophages were treated for 24 hours with 50 ng/ml LPS (Sigma Millipore), 100 ng/ml IFNγ (BioLegend), 300 ng/ml PAM3CSK4 (InvivoGen), 107 cells/ml heat killed Listeria Monocytogenes (HKLM) (InvivoGen), 100 ng/ml Flagellin Salmonella typhimurium standard (InvivoGen), 10 ng/ml FSL1 (InvivoGen), 2.5 ug/ml ssRNA40 (InvivoGen), 2.5 ug/ml CL 075 (Tocris), 5 μM ODN1826, 50 μM Fludarabine (SelleckChem), 50 nM Momelotinib (SelleckChem), 5 μM BVT948 (Sigma Millipore), 200 μM PTP1b inhibitor III (Santa Cruz Biotechnology Inc.), 5 μM NSC87877 (Santa Cruz Biotechnology Inc.), 50 μM PTP1b inhibitor (Cayman), 1 mM PTP Inhibitor IV (Santa Cruz Biotechnology Inc.), 1 μM TSC401, 300 nM UNC2371 (SelleckChem), 300 nM BMS777607 (SelleckChem), 300 nM LDC1267 (SelleckChem) 1.5 μg/ml recombinant Pros1 (R&D systems), 200 ng/ml recombinant Gas6 (R&D systems) or 10-500 μM Cisplatin (Tocris). All components were added as described in the text. Cell culture. B16F10 (CRL-6475, ATCC), Lewis lung carcinoma (LLC) (CRL-1642, ATCC), KPC2713 (Yuliya Pylayeva-Gupta laboratory, UNC) and MDA-MB-231 (HTB-26, ATCC) were cultured in DMEM high glucose supplemented with 10% FBS, 1% penicillin-streptomycin (Gibco). […]

[2] = tested on: Stat1 and MyD88 expression in pro-inflammatory macrophages; assay: Stat1 or Jak1/2 inhibitor treatment of pro-inflammatory macrophages, qRT-PCR; assay type: cell-based, mouse; details: Fludarabine 50 μM, Momelotinib 50 nM
Procedure: (§2) Peritoneal macrophage isolation and culture. Peritoneal macrophages were done as described previously(65) from 8-week-old C57BL/6J mice (randomized, both male and female). PBS (Gibco) was injected in the mural peritoneal cavity to release the macrophages. After recovering, cells were centrifuged at 1200 rpm for 5 minutes, resuspended in DMEM high glucose, 10% FBS, 1% penicillin-streptomycin (Gibco) and plated. 2 hours after the last step, cells were washed with PBS and maintained in DMEM/F12 supplemented with 10% FBS, 1% penicillin-streptomycin and 20 ng/ml of M-CSF (Prospec) for 2 days. […]

[3] = tested on: MyD88 expression in peritoneal macrophages; assay: Individual TLR agonism of macrophages, MyD88 by qRT-PCR; assay type: cell-based, mouse; details: 24 hours
Procedure: as §2

B16F10 tumors = assay: Subcutaneous B16F10 melanoma tumor model; assay type: in vivo, mouse; details: BVT948 10 mg/kg or Cisplatin 5 mg/kg intraperitoneal, treatment from 50 mm^3
Procedure: (§3) Tumor implantation, treatment and harvest. For animal studies, 1*10^5 B16F10 luciferase-tagged melanoma cells, 1*10^6 GEMM6 melanoma cells or 2*10^6 LCC cells were implanted subcutaneously into C57BL/6J mice (randomized, both males and females, 000664 The Jackson laboratory). When indicated, mice received intraperitoneal injections 7 days after implantation with 100 μl of 5 mg/kg cisplatin (Tocris), 100 μl of 10 mg/kg BVT948 (Tocris) or 100 μl of 30 mg/kg of vemurafenib. 5 mice were used per experimental group and tumors were harvested when they reached 1.5 cm in any direction.
(§4) Immunohistochemistry analysis. Immunohistochemistry assay was carried out in formalin-fixed, paraffin-embedded 4 μm sections using primary antibodies against F4:80 (AbD Serotec), CD11b (Abcam), CD4 (eBioscience) or CD8a (eBioscience) on a Discovery Ultra Automated IHC staining system (Ventana). Sections were then imaged using a ScanScope XT microscope (Aperio) and quantified using Aperio software.

[4] = tested on: macrophage M1 associated gene expression; assay: Cisplatin treated transwell co-culture of macrophages and B16F10 cells, qRT-PCR; assay type: cell-based, mouse
Procedure: Peritoneal macrophage isolation and culture. Peritoneal macrophages were done as described previously(65) from 8-week-old C57BL/6J mice (randomized, both male and female). PBS (Gibco) was injected in the mural peritoneal cavity to release the macrophages. After recovering, cells were centrifuged at 1200 rpm for 5 minutes, resuspended in DMEM high glucose, 10% FBS, 1% penicillin-streptomycin (Gibco) and plated. 2 hours after the last step, cells were washed with PBS and maintained in DMEM/F12 supplemented with 10% FBS, 1% penicillin-streptomycin and 20 ng/ml of M-CSF (Prospec) for 2 days. Macrophages were treated for 24 hours with 50 ng/ml LPS (Sigma Millipore), 100 ng/ml IFNγ (BioLegend), 300 ng/ml PAM3CSK4 (InvivoGen), 107 cells/ml heat killed Listeria Monocytogenes (HKLM) (InvivoGen), 100 ng/ml Flagellin Salmonella typhimurium standard (InvivoGen), 10 ng/ml FSL1 (InvivoGen), 2.5 ug/ml ssRNA40 (InvivoGen), 2.5 ug/ml CL 075 (Tocris), 5 μM ODN1826, 50 μM Fludarabine (SelleckChem), 50 nM Momelotinib (SelleckChem), 5 μM BVT948 (Sigma Millipore), 200 μM PTP1b inhibitor III (Santa Cruz Biotechnology Inc.), 5 μM NSC87877 (Santa Cruz Biotechnology Inc.), 50 μM PTP1b inhibitor (Cayman), 1 mM PTP Inhibitor IV (Santa Cruz Biotechnology Inc.), 1 μM TSC401, 300 nM UNC2371 (SelleckChem), 300 nM BMS777607 (SelleckChem), 300 nM LDC1267 (SelleckChem) 1.5 μg/ml recombinant Pros1 (R&D systems), 200 ng/ml recombinant Gas6 (R&D systems) or 10-500 μM Cisplatin (Tocris). All components were added as described in the text. Cell culture. B16F10 (CRL-6475, ATCC), Lewis lung carcinoma (LLC) (CRL-1642, ATCC), KPC2713 (Yuliya Pylayeva-Gupta laboratory, UNC) and MDA-MB-231 (HTB-26, ATCC) were cultured in DMEM high glucose supplemented with 10% FBS, 1% penicillin-streptomycin (Gibco). GEMM6 (Dr. Alisha Holtzhausen, UNC), KPPC4662 (Dr. Yuliya Pylayeva-Gupta laboratory, UNC), KPPC4548 (Yuliya Pylayeva-Gupta laboratory, UNC) and E0771 (CRL-3461, ATCC) were maintained in RPMI 1640 supplemented with […], 1% penicillin/streptomycin (Gibco) while PyMT cells were cultured in Ham's F-12K with 10% FBS, 1% penicillin-streptomycin (Gibco). Transwell assays were performed in 0.4 μm polyester membrane insert culture plates (Corning). 500,000 cells of each line were plated per well in DMEM/F12 supplemented with 10% FBS, 1% penicillin-streptomycin and 20 ng/ml of M-CSF for culture with mouse macrophages. SC cells (CRL-9855, ATCC) were cultured in IMDM with 10% FBS and 1% penicillin-streptomycin (Gibco). In transwell experiments with the SC cell line, cancer cells were also resuspended in IMDM media.
qRT-PCR. RNA was isolated using the RNeasy Plus Mini Kit (Quiagen) and cDNA was prepared using the Reverse Transcription System (Promega) with one-hour reverse transcription process. qRT-PCR was done using the PowerUp™ SYBR™ Green Master Mix (Applied Biosystems) on a QuantStudio Pro Real-time PCR system (Applied Biosystems) with a 95° C. pretreatment of 10 min, 50 cycles of 95° C., 10 sec and 60° C., 1 min and melt curve at the end. Analysis was performed with the 2^−ΔΔCT method(136).

LLC tumors = assay: Subcutaneous LLC tumor model; assay type: in vivo, mouse; details: BVT948 10 mg/kg or Cisplatin 5 mg/kg intraperitoneal, treatment from 50 mm^3
Procedure: as §3, §4

[5] = tested on: macrophage MyD88 expression; assay: Exogenous TAM ligand addition to pro-inflammatory macrophages, MyD88 qRT-PCR; assay type: cell-based, mouse; details: Pros1 1.5 ug/ml, Gas6 200 ng/ml, compared with transwell co-cultured B16F10 cells
Procedure: as §1

Molecule: O=S(=O)(O)c1ccc2cc(N=Nc3cc(S(=O)(=O)O)c4cccnc4c3O)ccc2c1 [NSC87877]
- Stat1 phosphorylation at Tyrosine 701 and Serine 727 [1]: increased

Molecule: N#CCNC(=O)c1ccc(-c2ccnc(Nc3ccc(N4CCOCC4)cc3)n2)cc1 [Momelotinib]
- Stat1 expression [2]: did not significantly alter
- MyD88 expression ([2]; compared with B16F10 transwell co-culture): did not significantly alter

Molecule: FSL-1
- MyD88 expression upon individual TLR agonism [3]: upregulation of MyD88

Molecule: Pam3CSK4
- MyD88 expression upon individual TLR agonism [3]: upregulation of MyD88

Molecule: CCc1oc2cc(S(=O)(=O)Nc3ccc(S(=O)(=O)Nc4nccs4)cc3)ccc2c1C(=O)c1cc(Br)c(O)c(Br)c1 [PTP inhibitor]
- Stat1 phosphorylation at Tyrosine 701 and Serine 727 [1]: increased

Molecule: N.N.[Cl][Pt][Cl] [Cisplatin]
- B16F10 tumor growth, monotherapy vs vehicle (B16F10 tumors): did not significantly reduce
- activation of Mer deficient macrophages ([4]; 25 μM Cisplatin, co-cultured with B16F10 tumor cells, no PTP1b inhibitor): macrophages could be activated even in the presence of tumor cells
- M1 associated gene expression, Cisplatin alone ([4]; even at 500 μM Cisplatin, wildtype macrophages with B16F10 cells): did not lead to substantially increased M1 associated gene expression
- M1 gene expression in MyD88 knockout macrophages ([4]; increasing Cisplatin, with or without BVT948): Neither increasing concentrations of Cisplatin, nor PTP1 b inhibition, were able to restore M1 gene expression
- LLC tumor growth reduction, monotherapy (LLC tumors): 30%

Molecule: Pros1: recombinant murine Pros1, TAM family ligand (R&D systems)
- macrophage MyD88 expression after exogenous ligand addition [5]: reduced comparably to that of tumor cell secretions
- macrophage MyD88 expression after exogenous ligand addition ([5]; listed as Recombinant murine Pros1): suppresses macrophage MyD88 expression similarly to transwell co-culture with B16F10 cells

B1: Gas6: recombinant Gas6, TAM family ligand (R&D systems) (protein, UniProt Q14393 31-678, looked up)
Growth arrest-specific …: ALLPAREATQFLRPRQRRAFQVFEEAKQGHLERECVEELCSREEAREVFENDPETDYFYPRYLDCINKYGSPYTKNSGFATCVQNLPDQCTPNPCDRKGTQACQDLMGNFFCLCKAGWGGRLCDKDVNECSQENGGCLQICHNKPGSFHCSCHSGFELSSDGRTCQDIDECADSEACGEARCKNLPGSYSCLCDEGFAYSSQEKACRDVDECLQGRCEQVCVNSPGSYTCHCDGRGGLKLSQDMDTCEDILPCVPFSVAKSVKSLYLGRMFSGTPVIRLRFKRLQPTRLVAEFDFRTFDPEGILLFAGGHQDSTWIVLALRAGRLELQLRYNGVGRVTSSGPVINHGMWQTISVEELARNLVIKVNRDAVMKIAVAGDLFQPERGLYHLNLTVGGIPFHEKDLVQPINPRLDGCMRSWNWLNGEDTTIQETVKVNTRMQCFSVTERGSFYPGSGFAFYSLDYMRTPLDVGTESTWEVEVVAHIRPAADTGVLFALWAPDLRAVPLSVALVDYHSTKKLKKQLVVLAVEHTALALMEIKVCDGQEHVVTVSLRDGEATLEVDGTRGQSEVSAAQLQERLAVLERHLRSPVLTFAGGLPDVPVTSAPVTAFYRGCMTLEVNRRLLDLDEAAYKHSDITAHSCPPVEPAAA
- macrophage MyD88 expression after exogenous ligand addition [5]: limited effect
